Data reported in PubChem BioAssay AID248 (DTP/NCI, 2004).
Toxic doses and inconclusive results are not listed. Cut-off read from the data, not from the text of the source: active = T/C of 150% or more; inactive = T/C below 125%.

Test system: L1210 leukemia ip in BDF1 mice, survival T/C
Assay: NCI In Vivo Anticancer Drug Screen. Data for tumor model L1210 Leukemia (intraperitoneal) in B6D2F1 (BDF1) mice
Conditions: endpoint: mean survival time, higher = longer survival
In short: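 Mice bearing the transplanted tumor received compound or vehicle. Survival of the treated group was divided by that of the vehicle-treated control group to give the ratio.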

[1] = dose: 100.0 mg/kg/injection, schedule: Q04DX003 (ip), vehicle: Klucel (hydroxypropylcellulose) (HPC)
[2] = dose: 200.0 mg/kg/injection, schedule: Q04DX003 (ip), vehicle: Klucel (hydroxypropylcellulose) (HPC)
[3] = dose: 400.0 mg/kg/injection, schedule: Q04DX003 (ip), vehicle: Klucel (hydroxypropylcellulose) (HPC)
[4] = dose: 100.0 mg/kg/injection, schedule: Q01DX001 (ip), vehicle: Klucel (hydroxypropylcellulose) (HPC)
[5] = dose: 200.0 mg/kg/injection, schedule: Q01DX001 (ip), vehicle: Klucel (hydroxypropylcellulose) (HPC)
[6] = dose: 400.0 mg/kg/injection, schedule: Q01DX001 (ip), vehicle: Klucel (hydroxypropylcellulose) (HPC)
[7] = dose: 100.0 mg/kg/injection, schedule: Q01DX001 (ip), vehicle: saline
[8] = dose: 200.0 mg/kg/injection, schedule: Q01DX001 (ip), vehicle: saline
[9] = dose: 400.0 mg/kg/injection, schedule: Q01DX001 (ip), vehicle: saline
[10] = dose: 100.0 mg/kg/injection, schedule: Q01DX009 (ip), vehicle: Klucel (hydroxypropylcellulose) (HPC)
[11] = dose: 200.0 mg/kg/injection, schedule: Q01DX009 (ip), vehicle: Klucel (hydroxypropylcellulose) (HPC)
[12] = dose: 400.0 mg/kg/injection, schedule: Q01DX009 (ip), vehicle: Klucel (hydroxypropylcellulose) (HPC)
[13] = dose: 100.0 mg/kg/injection, schedule: Q04DX003 (ip), vehicle: saline with Tween-80
[14] = dose: 200.0 mg/kg/injection, schedule: Q04DX003 (ip), vehicle: saline with Tween-80
[15] = dose: 400.0 mg/kg/injection, schedule: Q04DX003 (ip), vehicle: saline with Tween-80
[16] = dose: 100.0 mg/kg/injection, schedule: Q04DX003 (ip), vehicle: saline
[17] = dose: 200.0 mg/kg/injection, schedule: Q04DX003 (ip), vehicle: saline
[18] = dose: 400.0 mg/kg/injection, schedule: Q04DX003 (ip), vehicle: saline

Measured: T/C

CCOC(=O)N1CCc2nc3ccccc3cc21
inactive: dose: 50.0 mg/kg/injection, schedule: Q01DX009 (ip), vehicle: other 100 % of control | dose: 100.0 mg/kg/injection, schedule: Q01DX009 (ip), vehicle: other 90 % of control | dose: 200.0 mg/kg/injection, schedule: Q01DX009 (ip), vehicle: other 93 % of control

COc1cc(C)c2c([N+](=O)[O-])cc([N+](=O)[O-])c(OC)c2n1
inactive: dose: 75.0 mg/kg/injection, schedule: Q01DX009 (ip), vehicle: Klucel (hydroxypropylcellulose) (HPC) 98 % of control | [1] 106 % of control | dose: 150.0 mg/kg/injection, schedule: Q01DX009 (ip), vehicle: Klucel (hydroxypropylcellulose) (HPC) 101 % of control | [2] 93 % of control | dose: 300.0 mg/kg/injection, schedule: Q01DX009 (ip), vehicle: Klucel (hydroxypropylcellulose) (HPC) 95 % of control | [3] 103 % of control

Clc1ccc2c(n1)Sc1c(Cl)nc(Cl)nc1N2
inactive: [4] 95 % of control | [5] 108 % of control | [6] 93 % of control

c1ccc(-c2cc(-c3ccccc3)c(-c3ccccc3)c(-c3ccccc3)c2)cc1
inactive: dose: 50.0 mg/kg/injection, schedule: Q01DX001 (ip), vehicle: saline 100 % of control | [7] 100 % of control | [8] 100 % of control | [9] 100 % of control

COC(=O)CNc1cccc([N+](=O)[O-])c1
inactive: [1] 95 % of control | [2] 102 % of control | [3] 101 % of control

C(=C/c1ccc(/C=C/c2ccccc2)cc1)/c1ccccc1
inactive: [10] 98 % of control | [1] 98 % of control | [11] 93 % of control | [2] 104 % of control | [12] 95 % of control | [3] 90 % of control

NC(=O)c1cc(O)c(O)c(O)c1
inactive: [7] 102 % of control | [8] 102 % of control | [9] 102 % of control

Cc1c([N+](=O)[O-])cc(C(=O)c2ccccc2C(=O)O)cc1[N+](=O)[O-]
inactive: dose: 75.0 mg/kg/injection, schedule: Q04DX003 (ip), vehicle: Klucel (hydroxypropylcellulose) (HPC) 98 % of control | dose: 150.0 mg/kg/injection, schedule: Q04DX003 (ip), vehicle: Klucel (hydroxypropylcellulose) (HPC) 91 % of control | dose: 300.0 mg/kg/injection, schedule: Q04DX003 (ip), vehicle: Klucel (hydroxypropylcellulose) (HPC) 91 % of control

CC(C)(C)N1CC(C(=O)c2ccc3ccccc3c2)C1c1ccccc1 (configuration not stated)
inactive: [13] 93 % of control | [14] 98 % of control | [15] 88 % of control

S=C1NC2(CCCCC2)NC12CCCCC2
inactive: [10] 97 % of control | [1] 101 % of control | [11] 98 % of control | [2] 103 % of control | [12] 93 % of control | [3] 101 % of control

CCN(CC)CCCNc1cc(Cl)c(Cl)cc1[N+](=O)[O-]
inactive: dose: 12.0 mg/kg/injection, schedule: Q01DX009 (ip), vehicle: saline 104 % of control | dose: 25.0 mg/kg/injection, schedule: Q01DX009 (ip), vehicle: saline 95 % of control | dose: 50.0 mg/kg/injection, schedule: Q01DX009 (ip), vehicle: saline 91 % of control | [16] 95 % of control | [17] 90 % of control | [18] 96 % of control

Clc1ccc(/C=N/Nc2nc3ccccc3s2)c(Cl)c1
inactive: [13] 93 % of control | dose: 111.0 mg/kg/injection, schedule: Q01DX Z (ip), vehicle: methylcellulose (MC) 105 % of control | dose: 166.0 mg/kg/injection, schedule: Q01DX Z (ip), vehicle: methylcellulose (MC) 98 % of control | [14] 93 % of control | dose: 250.0 mg/kg/injection, schedule: Q01DX Z (ip), vehicle: methylcellulose (MC) 103 % of control | [15] 93 % of control

CC(=O)NC(c1ccccc1)C(C)C (configuration not stated)
inactive: dose: 100.0 mg/kg/injection, schedule: Q01DX001 (ip), vehicle: saline with Tween-80 92 % of control | dose: 200.0 mg/kg/injection, schedule: Q01DX001 (ip), vehicle: saline with Tween-80 103 % of control

CC(=O)O/C=C\c1ccccc1
inactive: dose: 50.0 mg/kg/injection, schedule: Q01DX001 (ip), vehicle: carboxymethylcellulose (CMC) 104 % of control | dose: 100.0 mg/kg/injection, schedule: Q01DX001 (ip), vehicle: carboxymethylcellulose (CMC) 98 % of control | dose: 200.0 mg/kg/injection, schedule: Q01DX001 (ip), vehicle: carboxymethylcellulose (CMC) 107 % of control | dose: 400.0 mg/kg/injection, schedule: Q01DX001 (ip), vehicle: carboxymethylcellulose (CMC) 98 % of control

ClCCN(CCCl)CCCN1c2ccccc2Sc2ccc(Cl)cc21
inactive: dose: 1.56 mg/kg/injection, schedule: Q01DX009 (ip), vehicle: saline with Tween-80 100 % of control | dose: 3.12 mg/kg/injection, schedule: Q01DX001 (ip), vehicle: saline with Tween-80 105 % of control | dose: 3.12 mg/kg/injection, schedule: Q01DX009 (ip), vehicle: saline with Tween-80 112 % of control | dose: 6.25 mg/kg/injection, schedule: Q01DX001 (ip), vehicle: saline with Tween-80 103 % of control | dose: 6.25 mg/kg/injection, schedule: Q01DX009 (ip), vehicle: saline with Tween-80 110 % of control | dose: 6.25 mg/kg/injection, schedule: Q04DX003 (ip), vehicle: saline with Tween-80 102 % of control | dose: 12.5 mg/kg/injection, schedule: Q01DX001 (ip), vehicle: saline with Tween-80 108 % of control | dose: 12.5 mg/kg/injection, schedule: Q01DX009 (ip), vehicle: saline with Tween-80 112 % of control | dose: 12.5 mg/kg/injection, schedule: Q04DX003 (ip), vehicle: saline with Tween-80 107 % of control | dose: 25.0 mg/kg/injection, schedule: Q04DX003 (ip), vehicle: saline with Tween-80 110 % of control | dose: 50.0 mg/kg/injection, schedule: Q04DX003 (ip), vehicle: saline with Tween-80 122 % of control

N#Cc1cc(C#N)c(NN)nc1N
inactive: [13] 86 % of control | [14] 94 % of control | [15] 92 % of control

COC(=O)c1ccccc1C1=C(O)C(=O)C(c2ccccc2C(=O)OC)=C(O)C1=O
inactive: [10] 97 % of control | [11] 98 % of control

CCN(CC)C(=O)Cn1cc(F)c(N)nc1=O
inactive: dose: 100.0 mg/kg/injection, schedule: Q01DX009 (ip), vehicle: saline 98 % of control | [16] 92 % of control | dose: 200.0 mg/kg/injection, schedule: Q01DX009 (ip), vehicle: saline 107 % of control | [17] 92 % of control | dose: 400.0 mg/kg/injection, schedule: Q01DX009 (ip), vehicle: saline 94 % of control | [18] 95 % of control

COc1ccccc1OCC(C)=O
inactive: dose: 100.0 mg/kg/injection, schedule: Q01DX009 (ip), vehicle: saline with Tween-80 95 % of control | dose: 200.0 mg/kg/injection, schedule: Q01DX009 (ip), vehicle: saline with Tween-80 105 % of control | dose: 400.0 mg/kg/injection, schedule: Q01DX009 (ip), vehicle: saline with Tween-80 105 % of control

CC(C)=CCNc1ncnc2nc[nH]c12
inactive: dose: 5.0 mg/kg/injection, schedule: Q01DX001 (ip), vehicle: saline 107 % of control | dose: 10.0 mg/kg/injection, schedule: Q01DX001 (ip), vehicle: saline 95 % of control | dose: 10.0 mg/kg/injection, schedule: Q01DX009 (ip), vehicle: saline with Tween-80 104 % of control | dose: 20.0 mg/kg/injection, schedule: Q01DX001 (ip), vehicle: saline 101 % of control | dose: 20.0 mg/kg/injection, schedule: Q01DX009 (ip), vehicle: saline with Tween-80 103 % of control | dose: 20.0 mg/kg/injection, schedule: Q04DX003 (ip), vehicle: saline with Tween-80 100 % of control | dose: 40.0 mg/kg/injection, schedule: Q01DX001 (ip), vehicle: saline 101 % of control | dose: 40.0 mg/kg/injection, schedule: Q01DX009 (ip), vehicle: saline with Tween-80 98 % of control

CC(=O)Nc1ccc(OCCOc2cccc(C)c2)cc1
inactive: [4] 103 % of control | [5] 100 % of control | [6] 105 % of control

Cc1cccc2ccc3cccc(C)c3c12
inactive: [7] 98 % of control | [8] 92 % of control | [9] 95 % of control
